Source: US8895695B2, “Template-fixed beta-hairpin peptidomimetics with CXCR4 antagonizing activity” (priority 2003, dated 2014)

What was measured:
in vitro = in vitro ADME; conditions: plasma
Description: 405 μl of plasma/albumin solution were placed in a polypropylene (PP) tube and spiked with 45 μl of compound from a 100 μM solution B, derived from 135 μl of PBS and 15 μl of 1 mM peptide in PBS, pH 7.4. 150 μl aliquots were transferred into individual wells of the 10 kDa filter plate (Millipore MAPPB 1010 Biomax membrane). For “0 minutes controls”: 270 μl of PBS were placed in a PP tube and 30 μl of stock solution B was added and vortexed. 150 μl of control solution was placed into one well of the filter plate and serves as “filtered control”.
Further 150 μl of control solution were placed directly into a receiver well (reserved for filtrate) and serve as “not-filtered control”. The entire plate including evaporation lid was incubated for 60 min at 37° C. Plasma samples (rat plasma: Harlan Sera lab UK, human plasma: Blutspendezentrum Zürich) were centrifuged at least for 2 h at 4300 rpm (3500 g) and 15° C. in order to yield 100 μl filtrate. For “serum albumin”-samples (freshly prepared human albumin: Sigma A-4327, rat albumin: Sigma A-6272, all at 40 mg/ml concentration in PBS) approximately 1 hour of centrifugation is sufficient. The filtrates in the receiver PP plate were analysed by LC/MS as followes: Column: Jupiter C18 (Phenomenex), mobile phases: (A) 0.1% formic acid in water and (B) acetonitrile, gradient: 5%-100% (B) in 2 minutes, electrospray ionization, MRM detection (triple quadrupole). The peak areas were determined and triplicate values are averaged. The binding is expressed in percent of the (filtered and not-filtered time point 0 min) control 1 and 2 by: 100−(100*T60/T0). The average from these values is then calculated (see ref. 9 below).

[1] = Pharmacokinetic study (PK) after single i.v. and i.p. administration; format: in vivo, male CD-1 mice
Description: 2.9. Pharmacokinetic Study (PK)
30 grams (±20%) male CD-1 mice obtained from Charles River Laboratories Deutschland GmbH were used in the study. The vehicle, physiological saline, was added to give a final concentration of 1 mg/ml of the compounds. […] Approximately 250-300 μl of blood was removed under light isoflurane anesthesia from the retro-orbital plexus at predetermined time intervals (0, 5, 15, 30 min and 1, 2 and 3 hours for the i.v. study and 0, 15, 30 min and 1, 2, 4 and 8 hours for the i.p. study) and added to heparinized tubes. Plasma was removed from pelleted cells upon centrifugation and frozen at −80° C. prior to HPLC-MS analysis.
Preparation of the Plasma Calibration Samples
“Blank” mouse plasma from untreated animals was used. […] The OASIS® HLB cartridges were conditioned with 1 ml of methanol and then with 1 ml of 1% NH3 in water. Samples were then diluted with 700 μl of 1% NH3 in water and loaded.
The plate was washed with 1 ml of methanol/1% NH3 in water 5/95. Elution was performed using 1 ml of 0.1% TFA in methanol.
The plate containing eluates was introduced into the concentrator system and taken to dryness. The residues were dissolved in 100 μL of formic acid 0.1%/acetonitrile, 95/5 (v/v) and analysed in the HPLC/MS on a reverse phase analytical column (Jupiter C18, 50×2.0 mm, 5 μm, Phenomenex), using gradient elution (mobile phases A: 0.1% formic acid in water, B: Acetonitrile; from 5% B to 100% B in 2 min.).
Preparation of Plasma Samples
Samples coming from animal treatments were pooled in order to obtain an appropriate volume for the extraction. If the total volume obtained was less than 0.2 ml the appropriate amount of “blank” mouse plasma was added in order to keep the matrix identical to the calibration curve. Samples were than spiked with IS and processed as described for the calibration curve.
Pharmacokinetic Evaluation
PK analysis was performed on pooled data (generally n=2 or 3) using the software PK solutions 2.0™ (Summit Research Service, Montrose, Colo. 81401 USA). The area under the curve AUC was calculated by the linear trapezoidal rule. AUC(t-∞) was estimated as Ct/b (b: elimination rate constant). […] the sum of AUC(0-t) and AUC(t-∞). Elimination half-life was calculated by the linear regression on at least three data points during the elimination phase. The time intervals selected for the half-life determinations were evaluated by the correlation coefficient (r^2), which should be at least above 0.85 and most optimally above 0.96. In case of i.v. administration the initial concentration at tzero was determined by extrapolation of the curve through the first two time points. Finally bioavailability after i.p. administration was calculated from the normalised AUC(0-∞) ration after i.p. versus i.v. administration.

[2] = Cytotoxicity assay (MTT reduction), HELA cells; conditions: human, HELA cells (Acc57);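 also: MTT reduction read as absorbance at 595 nm, blank-corrected and expressed as percent growth relative to the time-zero cell reading, triplicate wells per concentration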
[3] = male, CD-1, mouse, in vivo, ip, 10 mg/kg
[4] = male, CD-1, mouse, in vivo, iv, 2 mg/kg

N=C(N)NCCC[C@@H]1NC(=O)[C@@H]2CSSC[C@H](NC(=O)[C@H](Cc3ccc4ccccc4c3)NC(=O)[C@H](CCCNC(=N)N)NC(=O)[C@H](CCCNC(=N)N)NC(=O)[C@H]3CCCN3C(=O)CNC1=O)C(=O)N[C@@H](Cc1ccc(O)cc1)C(=O)N[C@@H](CCCNC(N)=O)C(=O)N[C@@H](CCCCN)C(=O)N1CCC[C@@H]1C(=O)N1CCC[C@H]1C(=O)N[C@@H](Cc1ccc(O)cc1)C(=O)N[C@@H](CCCNC(=N)N)C(=O)N[C@@H](CCCNC(N)=O)C(=O)N2 [Ex. 51]
half-life at 10 μM (in vitro; human): 4.77 h
half-life at 10 μM (in vitro; rat): > 5 h
times lower normalised Cmax after i.p. administration versus i.v. ([1]; i.p. 10 mg/kg versus i.v. 2 mg/kg, mouse): 45 times
AUC [1, 3]: 1300 ng·h/mL
AUC(0-inf) [1, 3]: 12900 ng·h/mL
AUC(0-t) [1, 3]: 11100 ng·h/mL
Tmax [1, 3]: 2 h
half-life [1, 3]: 2.5 h
level at 0.25 h [1, 3]: 673 ng/mL
level at 0.5 h [1, 3]: 1570 ng/mL
level at 1 h [1, 3]: 2010 ng/mL
level at 2 h [1, 3]: 3160 ng/mL
level at 4 h [1, 3]: 1020 ng/mL
level at 8 h [1, 3]: 519 ng/mL
Cmax ([1]; male, CD-1, mouse, in vivo, ip, 10 mg/kg, Cmax ng/ml): 3160 ng/mL
Cmax ([1]; male, CD-1, mouse, in vivo, ip, 10 mg/kg, Cmax norm.): 316 ng/mL
AUC [1, 4]: 953 ng·h/mL
AUC(0-inf) [1, 4]: 1900 ng·h/mL
AUC(0-t) [1, 4]: 1700 ng·h/mL
Tmax [1, 4]: 0 h
half-life [1, 4]: 2.8 h
level at 0.083 h [1, 4]: 1460 ng/mL
level at 0.25 h [1, 4]: 328 ng/mL
level at 0.5 h [1, 4]: 300 ng/mL
level at 1 h [1, 4]: 80 ng/mL
level at 2 h [1, 4]: 68 ng/mL
level at 3 h [1, 4]: 49 ng/mL
Cmax ([1]; male, CD-1, mouse, in vivo, iv, 2 mg/kg, Cmax ng/ml (extrapolated Cinitial)): 28600 ng/mL
Cmax ([1]; male, CD-1, mouse, in vivo, iv, 2 mg/kg, Cmax observed): 1460 ng/mL
% absorbed (F) (percentage of normalized AUC0-inf. intraperitoneal against normalized AUC0-inf i.v.) ([1]; mouse, in vivo, 2 mg/kg): 100%
% absorbed (F) (percentage of normalized AUC0-inf. intraperitoneal against normalized AUC0-inf i.v.) ([1]; mouse, in vivo, 10 mg/kg): 136%
β ([1]; mouse, in vivo, ip, 10 mg/kg): 0.28 h⁻¹
β ([1]; mouse, in vivo, iv, 2 mg/kg): 0.24 h⁻¹
CC50 at 48 h [2]: 97 µM
